IC50 data for 26 compounds are collected here from US9938273B2 (Plexxikon Inc., priority 2015, dated 2018).

One experiment deals with T1, FLT3-ITD (Homo sapiens, UniProt P36888).
T1 sequence (P36888 1-993): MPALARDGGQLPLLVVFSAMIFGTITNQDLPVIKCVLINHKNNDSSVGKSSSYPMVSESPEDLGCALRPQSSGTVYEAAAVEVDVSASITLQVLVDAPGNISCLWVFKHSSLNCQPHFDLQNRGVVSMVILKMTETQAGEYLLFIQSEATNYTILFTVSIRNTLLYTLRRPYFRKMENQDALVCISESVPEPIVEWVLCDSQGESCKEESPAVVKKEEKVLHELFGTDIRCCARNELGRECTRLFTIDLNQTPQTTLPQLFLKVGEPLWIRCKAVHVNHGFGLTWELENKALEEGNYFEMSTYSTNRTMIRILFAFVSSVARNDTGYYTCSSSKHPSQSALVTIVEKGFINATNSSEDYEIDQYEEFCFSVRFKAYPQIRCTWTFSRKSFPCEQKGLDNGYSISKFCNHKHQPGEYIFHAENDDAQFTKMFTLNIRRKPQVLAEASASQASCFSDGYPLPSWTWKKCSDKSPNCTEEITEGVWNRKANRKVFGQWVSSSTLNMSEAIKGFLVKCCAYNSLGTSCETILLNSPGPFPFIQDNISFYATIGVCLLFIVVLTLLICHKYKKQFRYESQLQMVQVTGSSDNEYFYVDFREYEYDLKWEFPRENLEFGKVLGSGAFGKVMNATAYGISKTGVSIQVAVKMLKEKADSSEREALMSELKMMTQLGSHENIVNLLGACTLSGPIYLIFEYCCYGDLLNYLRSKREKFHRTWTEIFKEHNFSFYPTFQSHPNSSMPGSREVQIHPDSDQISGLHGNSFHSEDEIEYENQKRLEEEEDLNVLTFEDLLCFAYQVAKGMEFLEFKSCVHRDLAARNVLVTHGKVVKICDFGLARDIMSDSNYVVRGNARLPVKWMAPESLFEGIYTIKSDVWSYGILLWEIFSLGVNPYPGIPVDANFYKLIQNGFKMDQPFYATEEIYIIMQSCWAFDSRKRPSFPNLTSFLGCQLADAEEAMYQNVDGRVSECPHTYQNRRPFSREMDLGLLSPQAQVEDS
The experiment in a line: AlphaScreen kinase assay with recombinant enzyme, FLT3-ITD. Particulars: 8pt; read-out: FLT3_ITD 8pt: IC50. The format is biochemical. The method in brief:
(§1)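 Read-out: AlphaScreen proximity signal at 580 nm (680 nm excitation), lost as peptide tyrosine phosphorylation falls. Substrate Biotin-GG(EEEEY)10EE at 30 nM; IC50 runs at 10 μM (FLT3 mutants) or 100 μM (c-KIT) final. Donor beads 20 min, then acceptor beads 60 min, room temperature.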
In general terms: In Alpha technology, singlet oxygen from a donor bead excites a nearby acceptor bead.

Another experiment deals with T2, c-KIT (Homo sapiens, UniProt P10721).
T2 construct: purchased Millipore 14-559K
T2 sequence (P10721 26-976): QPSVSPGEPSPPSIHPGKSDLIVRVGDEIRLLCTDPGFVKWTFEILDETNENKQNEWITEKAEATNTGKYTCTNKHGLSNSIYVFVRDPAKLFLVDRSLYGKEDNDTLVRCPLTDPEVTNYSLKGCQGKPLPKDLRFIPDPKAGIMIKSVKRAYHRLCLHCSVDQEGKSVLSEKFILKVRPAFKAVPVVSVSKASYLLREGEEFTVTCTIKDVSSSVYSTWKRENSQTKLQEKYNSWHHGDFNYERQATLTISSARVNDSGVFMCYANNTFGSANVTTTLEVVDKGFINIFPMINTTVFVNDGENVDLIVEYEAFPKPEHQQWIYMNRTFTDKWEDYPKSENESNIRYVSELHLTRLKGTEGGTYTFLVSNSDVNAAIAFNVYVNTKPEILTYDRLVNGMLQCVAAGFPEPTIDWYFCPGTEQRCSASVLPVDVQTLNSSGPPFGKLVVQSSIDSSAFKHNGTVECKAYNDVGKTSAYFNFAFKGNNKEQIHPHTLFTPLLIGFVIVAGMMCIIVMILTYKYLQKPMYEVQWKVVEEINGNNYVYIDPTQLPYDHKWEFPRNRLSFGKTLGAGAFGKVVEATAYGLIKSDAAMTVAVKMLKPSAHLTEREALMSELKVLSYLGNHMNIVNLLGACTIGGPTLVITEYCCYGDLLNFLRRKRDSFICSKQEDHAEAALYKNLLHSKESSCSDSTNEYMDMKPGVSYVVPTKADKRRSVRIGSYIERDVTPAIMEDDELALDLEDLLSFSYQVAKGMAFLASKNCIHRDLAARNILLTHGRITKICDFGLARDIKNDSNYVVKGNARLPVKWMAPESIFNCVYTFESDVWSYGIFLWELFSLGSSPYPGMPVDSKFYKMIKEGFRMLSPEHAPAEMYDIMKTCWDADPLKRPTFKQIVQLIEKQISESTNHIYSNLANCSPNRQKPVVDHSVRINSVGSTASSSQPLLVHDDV
The experiment in a line: AlphaScreen kinase assay with recombinant enzyme, c-KIT. Conditions: 100ATP, 8pt, GMean. The format is biochemical. The method in brief: as §1

In general, IC50 refers to the concentration that gives 50% inhibition.

On to `CONC(=O)c1cccc(-c2cnc3[nH]c(-c4ccccc4)cc3c2)c1` [Compound P-0003, N-methoxy-3-(2-phenyl-1H-pyrrolo[2,3-b]pyridin-5-yl)benzamide], for which the IC50 at FLT3-ITD and on c-KIT was 0.0001 to 10 µM each time.

On to `C#Cc1cc2cc(-c3cccc(S(=O)(=O)NC4CC4)c3)cnc2[nH]1` [Compound P-0004, N-cyclopropyl-3-(2-ethynyl-1H-pyrrolo[2,3-b]pyridin-5-yl)benzenesulfonamide], for which the IC50 at c-KIT lay within 0.0001 to 10 µM. For the compound `NC(=O)Nc1ccc(-c2cnc3[nH]c(-c4ccccc4)cc3c2)cc1` [Compound P-0005, [4-(2-phenyl-1H-pyrrolo[2,3-b]pyridin-5-yl)phenyl]urea], the IC50 at FLT3-ITD and at c-KIT was 0.0001 to 10 µM each time.

Regarding `CNC(=O)Nc1ccc(-c2cnc3[nH]c(-c4ccccc4)cc3c2)cc1` [Compound P-0006, 1-methyl-3-[4-(2-phenyl-1H-pyrrolo[2,3-b]pyridin-5-yl)phenyl]urea], the IC50 at FLT3-ITD and at c-KIT was 0.0001 to 10 µM each time. As for `CN(C)S(=O)(=O)Nc1cccc(-c2cnc3[nH]c(-c4ccccc4)cc3c2)c1` [Compound P-0007, 5-[3-(dimethylsulfamoylamino)phenyl]-2-phenyl-1H-pyrrolo[2,3-b]pyridine], at c-KIT, the IC50 lay within 10 to 50 µM.

For `NC1CCN(C(=O)c2n[nH]c3ccc(-c4cnc5[nH]c(-c6ccccc6)cc5c4)cc23)CC1` [Compound P-0012, (4-amino-1-piperidyl)-[5-(2-phenyl-1H-pyrrolo[2,3-b]pyridin-5-yl)-1H-indazol-3-yl]methanone], the half-inhibitory concentration (IC50) on FLT3-ITD and at c-KIT was 0.0001 to 10 µM throughout. On to `NC1CCN(C(=O)c2cccc(-c3cnc4[nH]c(-c5ccccc5)cc4c3)n2)CC1` [Compound P-0013, (4-amino-1-piperidyl)-[6-(2-phenyl-1H-pyrrolo[2,3-b]pyridin-5-yl)-2-pyridyl]methanone], for which the half-maximal inhibitory concentration (IC50) on FLT3-ITD and on c-KIT was 0.0001 to 10 µM throughout. As to `N[C@H]1CCN(C(=O)c2cccc(-c3cnc4[nH]c(-c5ccccc5)cc4c3)n2)C1` [Compound P-0015, [(3S)-3-aminopyrrolidin-1-yl]-[6-(2-phenyl-1H-pyrrolo[2,3-b]pyridin-5-yl)-2-pyridyl]methanone], the IC50 at FLT3-ITD and at c-KIT was 0.0001 to 10 µM in each case. As to `N[C@H]1CCN(C(=O)c2n[nH]c3ccc(-c4cnc5[nH]c(-c6ccccc6)cc5c4)cc23)C1` [Compound P-0016, [(3S)-3-aminopyrrolidin-1-yl]-[5-(2-phenyl-1H-pyrrolo[2,3-b]pyridin-5-yl)-1H-indazol-3-yl]methanone], the IC50 at FLT3-ITD and on c-KIT was 0.0001 to 10 µM throughout.

Regarding `CC(C)(C)OC(=O)NC1CCN(C(=O)c2cccc(-c3cnc4[nH]c(-c5ccccc5)cc4c3)n2)CC1` [Compound P-0017, tert-butyl N-[1-[6-(2-phenyl-1H-pyrrolo[2,3-b]pyridin-5-yl)pyridine-2-carbonyl]-4-piperidyl]carbamate], the IC50 on FLT3-ITD is 0.0001 to 10 µM; on c-KIT, 10 to 50 µM. The like results for `NC1CCC(NC(=O)c2cccc(-c3cnc4[nH]c(-c5ccccc5)cc4c3)n2)CC1` (stereo not drawn) [Compound P-0018, N-(4-aminocyclohexyl)-6-(2-phenyl-1H-pyrrolo[2,3-b]pyridin-5-yl)pyridine-2-carboxamide] were, in that order, 0.0001 to 10 µM and 0.0001 to 10 µM. In the case of `CC(=O)NC1CCN(C(=O)c2cccc(-c3cnc4[nH]c(-c5ccccc5)cc4c3)n2)CC1` [Compound P-0020, N-[1-[6-(2-phenyl-1H-pyrrolo[2,3-b]pyridin-5-yl)pyridine-2-carbonyl]-4-piperidyl]acetamide], the IC50 on FLT3-ITD and at c-KIT was 0.0001 to 10 µM each time. With `CC(=O)NC1CCN(C(=O)c2n[nH]c3ccc(-c4cnc5[nH]c(-c6ccccc6)cc5c4)cc23)CC1` [Compound P-0021, N-[1-[5-(2-phenyl-1H-pyrrolo[2,3-b]pyridin-5-yl)-1H-indazole-3-carbonyl]-4-piperidyl]acetamide], on c-KIT, the IC50 was in the range of 50 to 100 µM. In the case of `CN1CCC(NC(=O)c2n[nH]c3ccc(-c4cnc5[nH]c(-c6ccccc6)cc5c4)cc23)CC1` [Compound P-0022, N-(1-methyl-4-piperidyl)-5-(2-phenyl-1H-pyrrolo[2,3-b]pyridin-5-yl)-1H-indazole-3-carboxamide], the IC50 at FLT3-ITD and at c-KIT was 0.0001 to 10 µM in each case.

As for `O=C(c1cccc(-c2cnc3[nH]c(-c4ccccc4)cc3c2)n1)N1CCC(CO)CC1` [Compound P-0023, [4-(hydroxymethyl)-1-piperidyl]-[6-(2-phenyl-1H-pyrrolo[2,3-b]pyridin-5-yl)-2-pyridyl]methanone], the IC50 at FLT3-ITD is 0.0001 to 10 µM; on c-KIT, 50 to 100 µM. Regarding `CCOC(=O)C1CCN(C(=O)c2cccc(-c3cnc4[nH]c(-c5ccccc5)cc4c3)n2)CC1` [Compound P-0025, ethyl 1-[6-(2-phenyl-1H-pyrrolo[2,3-b]pyridin-5-yl)pyridine-2-carbonyl]piperidine-4-carboxylate], the IC50 on FLT3-ITD and on c-KIT was 0.0001 to 10 µM in each case. As for `CC(C)(C#N)NC(=O)c1cccc(-c2cnc3[nH]c(-c4cncnc4)cc3c2)n1` [Compound P-0195, N-(1-cyano-1-methyl-ethyl)-6-(2-pyrimidin-5-yl-1H-pyrrolo[2,3-b]pyridin-5-yl)pyridine-2-carboxamide], at FLT3-ITD, the IC50 lay within 0.0001 to 10 µM. With `COc1ncc(-c2cc3cc(-c4cccc(C(=O)NC(C)(C)C#N)n4)cnc3[nH]2)cn1` [Compound P-0196, N-(1-cyano-1-methyl-ethyl)-6-[2-(2-methoxypyrimidin-5-yl)-1H-pyrrolo[2,3-b]pyridin-5-yl]pyridine-2-carboxamide], on FLT3-ITD, the IC50 fell in the range of 0.0001 to 10 µM. For the compound `CC(C)(C#N)NC(=O)c1cccc(-c2cnc3[nH]c(-c4ccc(N5CCOCC5)nc4)cc3c2)n1` [Compound P-0197, N-(1-cyano-1-methyl-ethyl)-6-[2-(6-morpholino-3-pyridyl)-1H-pyrrolo[2,3-b]pyridin-5-yl]pyridine-2-carboxamide], at FLT3-ITD, the IC50 was 0.0001 to 10 µM. Regarding `CC(C)(C#N)NC(=O)c1cccc(-c2cnc3[nH]c(-c4cnc(N5CCOCC5)nc4)cc3c2)n1` [Compound P-0198, N-(1-cyano-1-methyl-ethyl)-6-[2-(2-morpholinopyrimidin-5-yl)-1H-pyrrolo[2,3-b]pyridin-5-yl]pyridine-2-carboxamide], the IC50 at FLT3-ITD lay within 0.0001 to 10 µM.

`CC(C)(C#N)NC(=O)c1cccc(-c2cnc3[nH]c(-c4cccc(N5CCCS5(=O)=O)c4)cc3c2)n1` [Compound P-0199, N-(1-cyano-1-methyl-ethyl)-6-[2-[3-(1,1-dioxo-1,2-thiazolidin-2-yl)phenyl]-1H-pyrrolo[2,3-b]pyridin-5-yl]pyridine-2-carboxamide]: the IC50 on FLT3-ITD fell in the range of 0.0001 to 10 µM. With `CC(C)(NC(=O)c1cccc(-c2cnc3[nH]c(-c4cnn(C5CCNCC5)c4)cc3c2)n1)C(N)=O` [Compound P-0200, N-(2-amino-1,1-dimethyl-2-oxo-ethyl)-6-[2-[1-(4-piperidyl)pyrazol-4-yl]-1H-pyrrolo[2,3-b]pyridin-5-yl]pyridine-2-carboxamide], the IC50 at FLT3-ITD lay within 0.0001 to 10 µM. Still for that read-out and setting: next, `CC(C)(C#N)NC(=O)c1cccc(-c2cnc3[nH]c(-c4cnc(N5CCCC5)nc4)cc3c2)n1` [Compound P-0202, N-(1-cyano-1-methyl-ethyl)-6-[2-(2-pyrrolidin-1-ylpyrimidin-5-yl)-1H-pyrrolo[2,3-b]pyridin-5-yl]pyridine-2-carboxamide]: 0.0001 to 10 µM. On to `CCOc1ncc(-c2cc3cc(-c4cccc(C(=O)NC(C)(C)C#N)n4)cnc3[nH]2)cn1` [Compound P-0203, N-(1-cyano-1-methyl-ethyl)-6-[2-(2-ethoxypyrimidin-5-yl)-1H-pyrrolo[2,3-b]pyridin-5-yl]pyridine-2-carboxamide], for which the IC50 at FLT3-ITD was 0.0001 to 10 µM. Turning to `CCc1ncc(-c2cc3cc(-c4cccc(C(=O)NC(C)(C)C#N)n4)cnc3[nH]2)cn1` [Compound P-0205, N-(1-cyano-1-methyl-ethyl)-6-[2-(2-ethylpyrimidin-5-yl)-1H-pyrrolo[2,3-b]pyridin-5-yl]pyridine-2-carboxamide], at FLT3-ITD, the IC50 was in the range of 0.0001 to 10 µM. As to `CCCOc1ncc(-c2cc3cc(-c4cccc(C(=O)NC(C)(C)C#N)n4)cnc3[nH]2)cn1` [Compound P-0206, N-(1-cyano-1-methyl-ethyl)-6-[2-(2-propoxypyrimidin-5-yl)-1H-pyrrolo[2,3-b]pyridin-5-yl]pyridine-2-carboxamide], on FLT3-ITD, the half-maximal inhibitory concentration (IC50) is 0.0001 to 10 µM.
